Experimental data: patent US12472263B2, “Ophthalmic formulation” (PANOPTES PHARMA GES.M.B.H., priority 2018, dated 2025)
Values after ≈ are worked out from the molar mass of the structure shown. Counter-ions that a name gives are not always drawn. Like-named read-outs stand apart in the source and are kept apart here.

Experiments:
[1] = Thermodynamic solubility in PBS pH 7.4 and in 5% HSA in PBS; type: physicochemical; settings: for solubility thermodynamic: thermodynamic from solid; for Increase in solubility: from PBS to 5% HSA in PBS
Method: The process was initiated by adding 1 mL of defined buffer to about 1 mg of the solid compound. The solutions were mixed for at least 15 hours. If there was no undissolved substance in the solution visible, an additional portion of the solid compound was added and the solution was further mixed for at least 15 hours. This step was repeated until a saturated solution in equilibrium was achieved; excess solid was clearly visible. The total mixing time until equilibrium should exceed 40 hours. After reaching the equilibrium, the solutions were centrifuged for 10 minutes at 14,000 rpm.

[2] = target: T1, HSA (human serum albumin) (Homo sapiens, UniProt P02768); test: Binding of different pharmaceutically active compounds to albumin, RED assay; type: in vitro ADME; settings: 5 h, pH 7.4
Method: (§1) For analysis of binding of different pharmaceutically active compounds to HSA (human serum albumin) a rapid equilibrium dialysis (RED) assay from Thermo Scientific™ was conducted. Different pharmaceutically active compounds (in saturated solutions as prepared in Example 1) were applied to the donor side of the device. PBS pH 7.4 was used as acceptor medium. The time required to achieve equilibrium in the dialysis was determined to 5 hours. The formulations were incubated at 23° C. at 300 rpm. The unbound fraction was allowed to permeate through the dialysis membrane into the acceptor buffer chamber. After 5 hours equilibration time, the unbound fraction was determined by analyzing the amount of the active compound in each compartment via LC/MS.
The amount of free compound was calculated according to the equation:
The amount of bound compound is calculated as % bound=100−% free

[3] = Aqueous solubility in phosphate buffer pH 7.4, without and with 5% albumin; type: physicochemical; settings: thermodynamic from solid
Method: As used herein, “solubility in aqueous solution of at least X mg/mL” refers to thermodynamic solubility of a compound in an aqueous 50 mM phosphate buffer or phosphate buffered saline (PBS) solution at pH 7.4 at least X mg/mL. PP-001 has a solubility of 0.8 mg/mL in an aqueous phosphate buffer solution at pH 7.4. However, if the aqueous buffer solution comprises 5% albumin PP-001 has solubility of at least 5 mg/mL.

[4] = PK study in rabbits after topical ocular administration; type: in vivo, New Zealand White rabbits
Method: To confirm that PP-001/albumin formulations deliver sufficient PP-001 to target tissues (i.e. conjunctiva and cornea), a pharmacokinetic study was performed in New Zealand White rabbits.
10 female animals of ca. 3 months age were dosed one drop (35 μL drop size) of the formulation 1 (3 mg/ml PP-001) in both eyes at time point 0. Animals were sacrificed 5 or 30 minutes or 2, 4, or 12 hours after dosing and ocular tissues and plasma were collected. PP-001 concentration in plasma and tissues were determined by a validated HPLC-MS analytical method.

human serum albumin = human serum albumin (Homo sapiens, UniProt P02768); test: Binding of PP-001 to albumin, rapid equilibrium dialysis (RED) assay; type: in vitro ADME; settings: PP-001/human serum albumin formulation, pH 7.4; formulation dosed in the rabbit PK study
Method: as §1, with “PP-001” for “different pharmaceutically active compounds”, “PP-001 formulations” for “pharmaceutically active compounds (in saturated solutions as prepared in Example 1)”, “device and 50 mM phosphate buffer” for “device. PBS”, “time” for “time,”, “PP-001” for “the active compound”, “HPLC/DAD.” for “LC/MS.”
(§2) To investigate nonspecific binding of PP-001 to the RED Device Inserts, a solution of 0.05 mg/mL PP-001 in 50 mM phosphate buffer pH 7.4 was used as a control sample. PP-001 concentration in the acceptor compartment was >82% of the concentration in the donor compartment. Only minor non-specific binding of PP-001 to the RED device was determined.
(§3) The amount of free PP-001 was calculated according to the equation:
(§4) The amount of bound PP-001 is calculated as % bound=100−% free

[5] = target: T1, HSA (human serum albumin); test: as above; type: in vitro ADME
Method: as §1, with “PP-001” for “different pharmaceutically active compounds”, “PP-001 formulations” for “pharmaceutically active compounds (in saturated solutions as prepared in Example 1)”, “device and 50 mM phosphate buffer” for “device. PBS”, “time” for “time,”, “PP-001” for “the active compound”, “HPLC/DAD.” for “LC/MS.”
as §2, §3, §4

uveitis = settings: cited from earlier work
[6] = aqueous buffer, PBS pH 7.4, saturated, LC/MS, read-out: Thermodynamic solubility in PBS pH 7.4
[7] = plasma or biological fluid, 5% HSA in PBS pH 7.4, saturated, LC/MS, read-out: Thermodynamic solubility in 5% HSA in PBS pH 7.4

T1 sequence (P02768 25-609): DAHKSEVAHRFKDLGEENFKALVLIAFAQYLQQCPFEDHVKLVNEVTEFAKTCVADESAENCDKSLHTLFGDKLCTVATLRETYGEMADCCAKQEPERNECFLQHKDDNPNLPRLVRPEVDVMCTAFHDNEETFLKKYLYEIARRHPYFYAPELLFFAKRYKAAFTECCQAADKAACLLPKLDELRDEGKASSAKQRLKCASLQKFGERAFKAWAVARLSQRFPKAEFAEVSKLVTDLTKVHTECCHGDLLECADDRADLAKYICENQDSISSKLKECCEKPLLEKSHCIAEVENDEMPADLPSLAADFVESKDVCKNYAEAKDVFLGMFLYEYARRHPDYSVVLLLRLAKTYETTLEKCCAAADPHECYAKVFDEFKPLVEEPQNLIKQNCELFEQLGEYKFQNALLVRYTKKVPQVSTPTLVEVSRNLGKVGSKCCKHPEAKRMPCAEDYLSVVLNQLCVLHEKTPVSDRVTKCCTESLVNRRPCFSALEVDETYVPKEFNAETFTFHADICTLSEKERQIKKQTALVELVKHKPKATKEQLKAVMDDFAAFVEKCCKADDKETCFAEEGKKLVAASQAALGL
Sequence of human serum albumin (P02768 25-609): as above

Compound	solubility thermodynamic [1, 6]	solubility thermodynamic [1, 7]	% bound ([2]; isolated protein)	Increase in solubility [1]	further results
CN1CCCC(n2nc(Cc3ccc(Cl)cc3)c3ccccc3c2=O)CC1 (stereo not drawn) [Azelastine HCl]	421 µg/mL	827 µg/mL	80.9%	96%	–
CNCC(O)c1ccc(OC(=O)C(C)(C)C)c(OC(=O)C(C)(C)C)c1 (stereo not drawn) [Dipivefrin HCl]	2340 µg/mL	7440 µg/mL	64.8%	218%	–
CCNC(=O)CCC/C=C\C[C@@H]1[C@@H](/C=C/[C@@H](O)CCc2ccccc2)[C@H](O)C[C@@H]1O [Bimatoprost]	1230 µg/mL (≈ 2970 µM)	3010 µg/mL (≈ 7230 µM)	77.6%	144%	–
CCN[C@H]1CN(CCCOC)S(=O)(=O)c2sc(S(N)(=O)=O)cc21 [Brinzolamide]	273 µg/mL (≈ 712 µM)	387 µg/mL (≈ 1010 µM)	70.3%	42%	–

The next lines start with results.

solubility thermodynamic [1, 6]	solubility thermodynamic [1, 7]	% bound ([2]; isolated protein)	Increase in solubility [1]	Compound	further results
3 µg/mL	83 µg/mL	75.4%	–	C[C@@H]1CN([C@H]2CC[C@](C#N)(c3ccc(F)cc3)CC2)CC[C@]1(C(=O)O)c1ccccc1 [Levocabastine HCl]	Increase in solubility ([1]; HCl): 2,333%^; Increase in solubility ([1]; listed as levocabastine HCl, HCl): 2,333%
9 µg/mL (≈ 35.4 µM)	64 µg/mL (≈ 252 µM)	92.1%	619%	NC(=O)Cc1cccc(C(=O)c2ccccc2)c1N [Nepafenac]	–
483 µg/mL (≈ 935 µM)	1420 µg/mL (≈ 2750 µM)	95.7%	195%	CC(=O)O[C@H]1C[C@@]2(C)[C@@H](C[C@@H](O)[C@H]3[C@@]4(C)CC[C@@H](O)[C@@H](C)[C@@H]4CC[C@@]32C)/C1=C(\CCC=C(C)C)C(=O)O [Fusidic Acid]	–
48 µg/mL (≈ 100 µM)	2910 µg/mL (≈ 6070 µM)	99.9%	–	O=C(Nc1c(F)c(F)c(-c2cccc(OC(F)(F)F)c2)c(F)c1F)c1ccsc1C(=O)O [PP-001, 3-(2,3,5,6-tetrafluoro-3′-trifluoromethoxy-biphenyl-4-ylcarbamoyl)-thiophene-2-carboxylic acid]	% bound [2]: ~100%; solubility ([3]; aqueous buffer with 5% albumin, aqueous with cosolvent or surfactant or cyclodextrin, buffer pH 7.4 with 5% albumin, read-out: solubility in aqueous buffer solution comprising 5% albumin): ≥ 5000 µg/mL; solubility ([3]; aqueous phosphate buffer, aqueous buffer, phosphate buffer pH 7.4, read-out: aqueous solubility in phosphate buffer pH 7.4): 800 µg/mL (≈ 1670 µM); Cmax ([4]; female, New Zealand White, rabbit, plasma, topical, 35 μL drop of 3 mg/ml per eye, one 35 μL drop of formulation 1 (3 mg/ml PP-001) in both eyes): < 9 ng/mL; absorption of PP-001 by ocular tissues (conjunctiva, cornea) ([4]; one 35 μL drop of formulation 1 (3 mg/ml PP-001) in both eyes): substantial amounts of PP-001 are absorbed by ocular tissues; persistence in the cornea ([4]; one 35 μL drop of formulation 1 (3 mg/ml PP-001), up to 12 hours after dosing): highly persistent in the cornea; fraction unbound at 5 h, 3 mg/ml (human serum albumin): < 0.05; PP-001 concentration in the acceptor compartment as % of the donor compartment (nonspecific binding control) ([5]; 0.05 mg/mL PP-001 in 50 mM phosphate buffer pH 7.4, no albumin): > 82%; binding of PP-001 to albumin (in words) ([5]; even at high PP-001 concentrations): nearly completely bound to albumin; relapses of experimental autoimmune uveitis (uveitis; therapeutic approach): prevents relapses; clinical and histological symptoms of uveitis (uveitis; two different rat models for uveitis): completely ameliorates clinical and histological symptoms
–	–	–	>10,000%	Netarsudil mesylate	Thermodynamic solubility in 5% HSA in PBS pH 7.4 ([1]; 5% HSA in PBS pH 7.4, saturated, LC/MS): 0.140 mg/mL; Thermodynamic solubility in PBS pH 7.4 ([1]; PBS pH 7.4, saturated, LC/MS): <0.000051 mg/mL; Increase in solubility ([1]; listed as netarsudil mesylate): > 274,763%
–	–	94.3%	–	CC(=O)OCC(=O)[C@@]1(O)CC[C@H]2[C@@H]3CCC4=CC(=O)C=C[C@]4(C)[C@H]3[C@@H](O)C[C@@]21C [Prednisolone acetate]	–
